Laboratory results from US11827664B2, “Biaryl amides with modified sugar groups for treatment of diseases associated with heat shock protein pathway” (REATA PHARMACEUTICALS, INC., priority 2018, dated 2023).

How the values were obtained:
[1] = tested on: rat streptozotocin induced diabetes model for painful diabetic neuropathy; experiment: Streptozotocin-induced rat model of painful diabetic neuropathy, Von Frey measurement for allodynia; assay type: in vivo; settings: STZ 60 mg/kg IV, oral QD dosing started on Day 10
Protocol: A streptozotocin-induced rat model was used to test the effectiveness of KU-596 (T0) and several of the instant compounds in a model of painful diabetic neuropathy. The study rats were allowed to accliminate to the Von Frey apparatus for one day prior to the initial Von Frey measurement. A baseline Von Frey measurement, a body weight measurement, and blood glucose level measurements were conducted one day before the intravenous administration of streptozotocin to induce diabetes. […] Each of the animals in a treatment group was dosed with either the vehicle or a therapeutic agent orally. Treatment was continued until euthanasia approximately one to two weeks later.
Streptozotocin was injected into rats to induce diabetes after a baseline Von Frey measurement for allodynia was collected. Oral administration of each test drug (Compound T0 (KU-596), FIG. 1A; Compound T2, FIG. 1B, and Compound T1, FIG. 1C) was started on Day 10 after another Von Frey measurement.

[2] = Stability in acidic medium, monitored by HPLC; assay type: physicochemical; settings: 0.1 N aq. HCl/MeOH (2/1 v/v), room temperature
Protocol: A sample of a test compound (1.2 mg) was dissolved in 0.1 N aq. HCl/MeOH (2/1 v/v, 4 mL) at room temperature. The degradation of the test compound was monitored by HPLC. The percentage of the test compound remaining was calculated using the peak area % in HPLC.

neurons [3] = settings: cited from earlier work; for effect on mitochondrial function / bioenergetics: neurons
diabetic mice = settings: cited from earlier work
neurons [4] = settings: in vitro; cited from earlier work
[5] = target: Hsp90 C-terminus nucleotide binding pocket; settings: low affinity; Marcu, et al., 2000; cited from earlier work
[6] = 22 hours (footnote *, printed in the 24 h line)

CO[C@@H]1[C@@H](O)[C@@H](O)[C@H](Oc2ccc(CCNC(C)=O)c(-c3cccc(F)c3)c2)O[C@H]1C [T2]
activity in model of painful diabetic neuropathy relative to T0 (KU-596), Von Frey measurement [1]: comparable to slightly better activity
percentage of test compound remaining (HPLC peak area %) ([2]; 0 h): 100.0%
percentage of test compound remaining (HPLC peak area %) ([2]; 4 h): 99.9%
percentage of test compound remaining (HPLC peak area %) ([2]; 8 h): 99.5%
percentage of test compound remaining (HPLC peak area %) ([2]; 12 h): 99.8%
percentage of test compound remaining (HPLC peak area %) ([2]; 16 h): 100.2%
percentage of test compound remaining (HPLC peak area %) ([2]; 20 h): 99.9%
percentage of test compound remaining (HPLC peak area %) [2, 6]: 100.2* %

CNC(=O)CCc1ccc(O[C@@H]2O[C@@H](C)[C@H](OC)[C@@H](O)[C@H]2O)cc1-c1cccc(F)c1 [T11]
percentage of test compound remaining (HPLC peak area %) ([2]; 0 h): 100.0%
percentage of test compound remaining (HPLC peak area %) ([2]; 4 h): 100.2%
percentage of test compound remaining (HPLC peak area %) ([2]; 8 h): 100.3%
percentage of test compound remaining (HPLC peak area %) ([2]; 12 h): 100.6%
percentage of test compound remaining (HPLC peak area %) ([2]; 16 h): 100.9%
percentage of test compound remaining (HPLC peak area %) ([2]; 20 h): 101.4%
percentage of test compound remaining (HPLC peak area %) ([2]; 24 h): 102.1%

CC(=O)NCCc1ccc(O[C@@H]2OC(C)(C)[C@H](OC(F)F)[C@@H](O)[C@H]2O)cc1-c1cccc(F)c1 [T6]
percentage of test compound remaining (HPLC peak area %) ([2]; 0 h): 100.0%
percentage of test compound remaining (HPLC peak area %) ([2]; 4 h): 99.1%
percentage of test compound remaining (HPLC peak area %) ([2]; 8 h): 99.0%
percentage of test compound remaining (HPLC peak area %) ([2]; 12 h): 97.6%
percentage of test compound remaining (HPLC peak area %) ([2]; 16 h): 96.6%
percentage of test compound remaining (HPLC peak area %) ([2]; 20 h): 96.0%
percentage of test compound remaining (HPLC peak area %) ([2]; 24 h): 95.7%

CC(=O)NCCc1ccc(O[C@@H]2O[C@@H](C)[C@H](O)[C@@H](O)[C@H]2O)cc1-c1cccc(F)c1 [T1]
activity in model of painful diabetic neuropathy relative to T0 (KU-596), Von Frey measurement [1]: comparable to slightly better activity
percentage of test compound remaining (HPLC peak area %) ([2]; 0 h): 100.0%
percentage of test compound remaining (HPLC peak area %) ([2]; 4 h): 101.1%
percentage of test compound remaining (HPLC peak area %) ([2]; 8 h): 100.1%
percentage of test compound remaining (HPLC peak area %) ([2]; 12 h): 100.5%
percentage of test compound remaining (HPLC peak area %) ([2]; 16 h): 100.4%
percentage of test compound remaining (HPLC peak area %) ([2]; 20 h): 100.3%
percentage of test compound remaining (HPLC peak area %) ([2]; 24 h): 100.4%

CNC(=O)CCc1ccc(O[C@@H]2OC(C)(C)[C@H](OC)[C@@H](O)[C@H]2O)cc1-c1cccc(F)c1 [T57]
percentage of test compound remaining (HPLC peak area %) ([2]; 0 h): 100.0%
percentage of test compound remaining (HPLC peak area %) ([2]; 4 h): 97.9%
percentage of test compound remaining (HPLC peak area %) ([2]; 8 h): 93.4%
percentage of test compound remaining (HPLC peak area %) ([2]; 12 h): 90.3%
percentage of test compound remaining (HPLC peak area %) ([2]; 16 h): 86.4%
percentage of test compound remaining (HPLC peak area %) ([2]; 20 h): 82.5%
percentage of test compound remaining (HPLC peak area %) ([2]; 24 h): 79.3%

CC(=O)NCCc1ccc(O[C@@H]2OC(C)(C)[C@H](OCc3ccccc3)[C@@H](O)[C@H]2O)cc1-c1cccc(F)c1 [T7]
percentage of test compound remaining (HPLC peak area %) ([2]; 0 h): 100.0%
percentage of test compound remaining (HPLC peak area %) ([2]; 4 h): 93.3%
percentage of test compound remaining (HPLC peak area %) ([2]; 8 h): 85.6%
percentage of test compound remaining (HPLC peak area %) ([2]; 12 h): 78.8%
percentage of test compound remaining (HPLC peak area %) ([2]; 16 h): 71.5%
percentage of test compound remaining (HPLC peak area %) ([2]; 20 h): 65.5%
percentage of test compound remaining (HPLC peak area %) ([2]; 24 h): 61.7%

CO[C@@H]1[C@@H](O)[C@@H](O)[C@H](Oc2ccc(CCNC(C)=O)c(-c3cccc(F)c3)c2)OC1(C)C [T0, reference compound]
percentage of test compound remaining (HPLC peak area %) ([2]; 0 h): 100.0%
percentage of test compound remaining (HPLC peak area %) ([2]; 4 h): 96.7 ± 1.4%
percentage of test compound remaining (HPLC peak area %) ([2]; 8 h): 93.4 ± 1.7%
percentage of test compound remaining (HPLC peak area %) ([2]; 12 h): 90.5 ± 2.3%
percentage of test compound remaining (HPLC peak area %) ([2]; 16 h): 87.3 ± 2.9%
percentage of test compound remaining (HPLC peak area %) ([2]; 20 h): 83.9 ± 4.1%
percentage of test compound remaining (HPLC peak area %) ([2]; 24 h): 81.8 ± 4.2%

CO[C@@H]1[C@@H](O)[C@@H](O)[C@H](Oc2ccc3cc(NC(C)=O)c(=O)oc3c2C)OC1(C)C [KU-32]
effect on mitochondrial function / bioenergetics (neurons [3]): improve mitochondrial bioenergetics
effect on symptoms of DPN / neuropathy in diabetic mice (diabetic mice): significant activity in reversing established symptoms of DPN in diabetic mice

CC(=O)NCCc1ccc(O[C@@H]2O[C@@H](CO)[C@H](O)[C@@H](O)[C@H]2O)cc1-c1cccc(F)c1 [T60]
percentage of test compound remaining (HPLC peak area %) ([2]; 0 h): 100.0%
percentage of test compound remaining (HPLC peak area %) ([2]; 4 h): 97.6%
percentage of test compound remaining (HPLC peak area %) ([2]; 8 h): 97.6%
percentage of test compound remaining (HPLC peak area %) ([2]; 12 h): 97.5%
percentage of test compound remaining (HPLC peak area %) ([2]; 16 h): 97.2%
percentage of test compound remaining (HPLC peak area %) ([2]; 20 h): 98.0%
percentage of test compound remaining (HPLC peak area %) ([2]; 24 h): 97.4%

CC(=O)NCCc1ccc(O[C@@H]2O[C@@H](C)[C@@H](O)[C@@H](O)[C@@H]2O)cc1-c1cccc(F)c1 [T15]
percentage of test compound remaining (HPLC peak area %) ([2]; 0 h): 100.0%
percentage of test compound remaining (HPLC peak area %) ([2]; 4 h): 99.9%
percentage of test compound remaining (HPLC peak area %) ([2]; 8 h): 99.0%
percentage of test compound remaining (HPLC peak area %) ([2]; 12 h): 98.5%
percentage of test compound remaining (HPLC peak area %) ([2]; 16 h): 97.9%
percentage of test compound remaining (HPLC peak area %) ([2]; 20 h): 97.0%
percentage of test compound remaining (HPLC peak area %) ([2]; 24 h): 96.5%

CO[C@@H]1[C@@H](O)[C@@H](O)C(Oc2ccc(CCNC(C)=O)c(-c3cccc(F)c3)c2)OC1(C)C (stereo partly drawn) [KU-596, N-(2-(5-(((3R,4S,5R)-3,4-dihydroxy-5-methoxy-6,6-dimethyltetra-hydro-2H-pyran-2-yl)oxy)-3′-fluoro-[1,1′-biphenyl]-2-yl)ethyl)-acetamide]
effect on expression of inflammatory markers (neurons [3]; diabetic neurons): reduce the expression of inflammatory markers in diabetic neurons
effect on mitochondrial function / bioenergetics (neurons [3]): improve impaired mitochondrial function in neurons
effect on symptoms of DPN / neuropathy in diabetic mice (diabetic mice): alleviate symptoms of neuropathy in diabetic mice
protection of neurons from hyperglycemic conditions (neurons [4]): protect neurons from hyperglycemic conditions in vitro

CO[C@@H]1[C@@H](O)[C@@H](O)[C@@H](Oc2ccc(CCNC(C)=O)c(-c3cccc(F)c3)c2)OC1(C)C [T20]
percentage of test compound remaining (HPLC peak area %) ([2]; 0 h): 100.0%
percentage of test compound remaining (HPLC peak area %) ([2]; 4 h): 97.7%
percentage of test compound remaining (HPLC peak area %) ([2]; 8 h): 94.8%
percentage of test compound remaining (HPLC peak area %) ([2]; 12 h): 91.9%
percentage of test compound remaining (HPLC peak area %) ([2]; 16 h): 89.2%
percentage of test compound remaining (HPLC peak area %) ([2]; 20 h): 86.8%
percentage of test compound remaining (HPLC peak area %) ([2]; 24 h): 84.4%

CC(=O)NCCc1ccc(O[C@H]2O[C@H](C)[C@@H](O)[C@H](O)[C@@H]2O)cc1-c1cccc(F)c1 [T54]
percentage of test compound remaining (HPLC peak area %) ([2]; 0 h): 100.0%
percentage of test compound remaining (HPLC peak area %) ([2]; 4 h): 100.4%
percentage of test compound remaining (HPLC peak area %) ([2]; 8 h): 100.2%
percentage of test compound remaining (HPLC peak area %) ([2]; 12 h): 101.0%
percentage of test compound remaining (HPLC peak area %) ([2]; 16 h): 101.1%
percentage of test compound remaining (HPLC peak area %) ([2]; 20 h): 101.3%
percentage of test compound remaining (HPLC peak area %) ([2]; 24 h): 101.2%

CO[C@@H]1[C@@H](O)[C@@H](O)[C@H](Oc2ccc(C(F)(F)CNC(C)=O)c(-c3cccc(F)c3)c2)O[C@H]1C [T13]
percentage of test compound remaining (HPLC peak area %) ([2]; 0 h): 100.0%
percentage of test compound remaining (HPLC peak area %) ([2]; 4 h): 99.3%
percentage of test compound remaining (HPLC peak area %) ([2]; 8 h): 99.7%
percentage of test compound remaining (HPLC peak area %) ([2]; 12 h): 100.3%
percentage of test compound remaining (HPLC peak area %) ([2]; 16 h): 99.5%
percentage of test compound remaining (HPLC peak area %) ([2]; 20 h): 99.7%
percentage of test compound remaining (HPLC peak area %) ([2]; 24 h): 99.3%

CO[C@@H]1[C@@H](O)[C@@H](O)[C@H](Oc2ccc(C(F)(F)CNC(C)=O)c(-c3cccc(F)c3)c2)OC1(C)C [T12]
percentage of test compound remaining (HPLC peak area %) ([2]; 0 h): 100.0%
percentage of test compound remaining (HPLC peak area %) ([2]; 4 h): 97.2%
percentage of test compound remaining (HPLC peak area %) ([2]; 8 h): 95.5%
percentage of test compound remaining (HPLC peak area %) ([2]; 12 h): 93.7%
percentage of test compound remaining (HPLC peak area %) ([2]; 16 h): 92.3%
percentage of test compound remaining (HPLC peak area %) ([2]; 20 h): 90.6%
percentage of test compound remaining (HPLC peak area %) [2, 6]: 89.9* %

CO[C@@H]1[C@@H](OC(N)=O)[C@@H](O)[C@H](Oc2ccc3c(O)c(NC(=O)c4ccc(O)c(CC=C(C)C)c4)c(=O)oc3c2C)OC1(C)C [novobiocin]
IC50 [5]: ~700 µM

CC(=O)NCCc1ccc(O[C@@H]2OC(C)(C)[C@H](O)[C@@H](O)[C@H]2O)cc1-c1cccc(F)c1 [T3]
percentage of test compound remaining (HPLC peak area %) ([2]; 0 h): 100.0%
percentage of test compound remaining (HPLC peak area %) ([2]; 4 h): 98.1%
percentage of test compound remaining (HPLC peak area %) ([2]; 8 h): 96.1%
percentage of test compound remaining (HPLC peak area %) ([2]; 12 h): 94.1%
percentage of test compound remaining (HPLC peak area %) ([2]; 16 h): 92.2%
percentage of test compound remaining (HPLC peak area %) ([2]; 20 h): 90.2%
percentage of test compound remaining (HPLC peak area %) ([2]; 24 h): 88.3%
